Test results: patent publication US20090246212A1, “DEVELOPMENT OF METHOD FOR SCREENING FOR DRUG CAPABLE OF IMPROVING PRODUCTION OF REGULATORY T CELLS AND METHOD FOR PRODUCING REGULATORY T CELLS USING IMMUNOSUPPRESSIVE MACROLIDE ANTIBIOTIC” (KYOTO UNIVERSITY, priority 2005, published 2009)

Key:
[1] = system: experimental allergic encephalomyelitis model; settings: model of multiple sclerosis; cited from earlier work
[2] = system: CD45RA^+CD25^−CD4^+ T cells; assay: FACS phenotype analysis of the T cell line from CD45RA^+CD25^−CD4^+ T cells cultured with rapamycin; format: cell-based, human; settings: rapamycin 20 nM from day 40, collected day 50
Method: PBMC derived from the subjects, or expanded T cell line were incubated with various antibodies for 30 min at 4° C. in the dark, washed, and analyzed using a BD FACSAria cell sorter and a FACSDiVA software (Becton Dickinson). The antibodies used were perCP-conjugated anti-CD4 mAb, biotin-conjugated anti-CD25 mAb, FITC-conjugated anti-CD45RA mAb, PE-conjugated anti-CD45RB mAb, anti-CD45RO mAb, anti-CD62L mAb, anti-CD38 mAb, anti-GITR mAb, and anti-TNFRII mAb. For intracellular staining with CTLA-4, the cells were subjected to cell surface staining, fixation, and permeabilization with Cytofix/Cytoperm solution (Becton Dickinson), and then intracellularly stained with PE-conjugated anti-CTLA-4.
(§1) CD45RA^+CD25^+CD4^+ T cells or CD45RA^+CD25^−CD4^+ T cells in human peripheral blood separated in the same manner as Example 1 (5×10̂4 cells/well) were stimulated with anti-human CD3 and CD28 conjugate beads in a ratio of 4 beads per cell in a 96-well round-bottomed culture plate containing 200 μl per well of a proliferation medium (AlyS505N (produced by Cell Science & Technology Institute) supplemented with 2% human AB serum) in the presence of human IL-2 (1000 U/ml, produced by Cell Science & Technology Institute). Rapamycin (20 nM, produced by Sigma) was added to the medium 0 or 40 days after the start of cultivation. Every 3 to 4 days, half of the medium was replaced with a fresh proliferation medium containing IL-2. If necessary, the cells were separated and repeatedly re-stimulated with anti-CD3/CD28 antibody conjugate beads every 10 to 14 days. Fifty days after the start of cultivation, the cells were collected and used for FACS analysis.
Expanded T cell lines were incubated with various antibodies for 30 minutes at 4° C. in the dark, washed, and analyzed using BD FACSAria cell sorter and FACSDiVA software (Becton Dickinson). The antibodies and staining conditions used were the same as Example 1.

[3] = system: CD45RA^+CD25^+CD4^+ T cell line; assay: Mixed lymphocyte reaction with trans-well, rapamycin-cultured CD45RA^+CD25^+CD4^+ T cell line; format: cell-based, human; settings: rapamycin 20 nM from day 40
Method: as §1, with “medium” for “medium 0 or”, “functional assay.” for “FACS analysis.”
(§2) Total CD4^+ T cells in peripheral blood were isolated in the same manner as Example 1. […] The culture product was collected, and [3H] thymidine uptake was measured using 1450 Microbeta TriLux (Wallac).

IgE-like antibody = settings: in vivo; cited from earlier work
[4] = system: CD45RA^+CD25^−CD4^+ T cell line; assay: Mixed lymphocyte reaction with trans-well, rapamycin-cultured CD45RA^+CD25^−CD4^+ T cell line; format: cell-based, human; settings: rapamycin 20 nM from day 40
Method: as §1, with “medium” for “medium 0 or”, “functional assay.” for “FACS analysis.”
as §2

[5] = conditions that allow cell contact
[6] = contact blocked with the trans-well

## CO[C@H]1C[C@@H]2CC[C@@H](C)[C@@](O)(O2)C(=O)C(=O)N2CCCC[C@H]2C(=O)O[C@H]([C@H](C)C[C@@H]2CC[C@@H](O)[C@H](OC)C2)CC(=O)[C@H](C)/C=C(\C)[C@@H](O)[C@@H](OC)C(=O)[C@H](C)C[C@H](C)/C=C/C=C/C=C/1C [rapamycin]
[1]
  efficacy in experimental allergic encephalomyelitis model: effective
[2]
  CD25 expression relative to CD45RA^−CD25^high+CD4^+ T cells in peripheral blood: about ⅕
  CD45RA expression intensity relative to CD45RA^+CD25^−CD4^+ T cells at the start of cultivation: about 1 time
  CD45RO phenotype of the T cell line: negative
  CD62L expression relative to CD45RA^−CD25^high+CD4^+ T cells in peripheral blood: about ⅓
  GITR / CTLA4 / CD45RB phenotype of the T cell line: GITR^+CTLA4^+CD45RB^high+
[3]; [5]
  T cell line's effect on proliferation of total CD4^+ T cells: strongly suppressed
[3]; [6]
  suppression of the proliferation of total CD4^+ T cells by the T cell line: interrupted
IgE-like antibody
  formation of IgE-like antibody: effectively inhibited
[4]; [5]
  T cell line's effect on proliferation of total CD4^+ T cells: strongly suppressed
[4]; [6]
  suppression of the proliferation of total CD4^+ T cells by the T cell line: continued to suppress
